According to patent US20250270209A1 (INTERLINE THERAPEUTICS, INC., priority 2022, published 2025):

Key:
[1] = molecular target: T1, wild type LRRK2 overexpressed in recombinant HEK-293T cells (Homo sapiens, UniProt Q5S007); assay: pS935 LRRK2 Cell Assay (HTRF, phospho-LRRK2 Ser935); type: cell-based; conditions: LRRK2 Inhibition, Table 8, 2 hours compound incubation
T1 construct: host or cells: HEK293T (transient transfection with pCMV-LRRK2 WT plasmid)
Outline: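 HEK-293T cells transiently transfected with wild-type LRRK2 for 24 h, plated overnight, then treated 2 h at 37° C with compound (top 10 μM, 3-fold, 9 doses, duplicates, 0.2% DMSO). Lysates probed overnight at 23° C by sandwich HTRF for pSer935; 665/615 nm ratio read.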

LRRK2 wild type enzyme = LRRK2 wild type enzyme (Homo sapiens, UniProt Q5S007); assay: Biochemical Assay: LRRK2 TR-FRET (LanthaScreen) kinase assay with LRRKtide substrate; conditions: LRRK2 Inhibition, Table 8
Chain of LRRK2 wild type enzyme (Q5S007 whole entry): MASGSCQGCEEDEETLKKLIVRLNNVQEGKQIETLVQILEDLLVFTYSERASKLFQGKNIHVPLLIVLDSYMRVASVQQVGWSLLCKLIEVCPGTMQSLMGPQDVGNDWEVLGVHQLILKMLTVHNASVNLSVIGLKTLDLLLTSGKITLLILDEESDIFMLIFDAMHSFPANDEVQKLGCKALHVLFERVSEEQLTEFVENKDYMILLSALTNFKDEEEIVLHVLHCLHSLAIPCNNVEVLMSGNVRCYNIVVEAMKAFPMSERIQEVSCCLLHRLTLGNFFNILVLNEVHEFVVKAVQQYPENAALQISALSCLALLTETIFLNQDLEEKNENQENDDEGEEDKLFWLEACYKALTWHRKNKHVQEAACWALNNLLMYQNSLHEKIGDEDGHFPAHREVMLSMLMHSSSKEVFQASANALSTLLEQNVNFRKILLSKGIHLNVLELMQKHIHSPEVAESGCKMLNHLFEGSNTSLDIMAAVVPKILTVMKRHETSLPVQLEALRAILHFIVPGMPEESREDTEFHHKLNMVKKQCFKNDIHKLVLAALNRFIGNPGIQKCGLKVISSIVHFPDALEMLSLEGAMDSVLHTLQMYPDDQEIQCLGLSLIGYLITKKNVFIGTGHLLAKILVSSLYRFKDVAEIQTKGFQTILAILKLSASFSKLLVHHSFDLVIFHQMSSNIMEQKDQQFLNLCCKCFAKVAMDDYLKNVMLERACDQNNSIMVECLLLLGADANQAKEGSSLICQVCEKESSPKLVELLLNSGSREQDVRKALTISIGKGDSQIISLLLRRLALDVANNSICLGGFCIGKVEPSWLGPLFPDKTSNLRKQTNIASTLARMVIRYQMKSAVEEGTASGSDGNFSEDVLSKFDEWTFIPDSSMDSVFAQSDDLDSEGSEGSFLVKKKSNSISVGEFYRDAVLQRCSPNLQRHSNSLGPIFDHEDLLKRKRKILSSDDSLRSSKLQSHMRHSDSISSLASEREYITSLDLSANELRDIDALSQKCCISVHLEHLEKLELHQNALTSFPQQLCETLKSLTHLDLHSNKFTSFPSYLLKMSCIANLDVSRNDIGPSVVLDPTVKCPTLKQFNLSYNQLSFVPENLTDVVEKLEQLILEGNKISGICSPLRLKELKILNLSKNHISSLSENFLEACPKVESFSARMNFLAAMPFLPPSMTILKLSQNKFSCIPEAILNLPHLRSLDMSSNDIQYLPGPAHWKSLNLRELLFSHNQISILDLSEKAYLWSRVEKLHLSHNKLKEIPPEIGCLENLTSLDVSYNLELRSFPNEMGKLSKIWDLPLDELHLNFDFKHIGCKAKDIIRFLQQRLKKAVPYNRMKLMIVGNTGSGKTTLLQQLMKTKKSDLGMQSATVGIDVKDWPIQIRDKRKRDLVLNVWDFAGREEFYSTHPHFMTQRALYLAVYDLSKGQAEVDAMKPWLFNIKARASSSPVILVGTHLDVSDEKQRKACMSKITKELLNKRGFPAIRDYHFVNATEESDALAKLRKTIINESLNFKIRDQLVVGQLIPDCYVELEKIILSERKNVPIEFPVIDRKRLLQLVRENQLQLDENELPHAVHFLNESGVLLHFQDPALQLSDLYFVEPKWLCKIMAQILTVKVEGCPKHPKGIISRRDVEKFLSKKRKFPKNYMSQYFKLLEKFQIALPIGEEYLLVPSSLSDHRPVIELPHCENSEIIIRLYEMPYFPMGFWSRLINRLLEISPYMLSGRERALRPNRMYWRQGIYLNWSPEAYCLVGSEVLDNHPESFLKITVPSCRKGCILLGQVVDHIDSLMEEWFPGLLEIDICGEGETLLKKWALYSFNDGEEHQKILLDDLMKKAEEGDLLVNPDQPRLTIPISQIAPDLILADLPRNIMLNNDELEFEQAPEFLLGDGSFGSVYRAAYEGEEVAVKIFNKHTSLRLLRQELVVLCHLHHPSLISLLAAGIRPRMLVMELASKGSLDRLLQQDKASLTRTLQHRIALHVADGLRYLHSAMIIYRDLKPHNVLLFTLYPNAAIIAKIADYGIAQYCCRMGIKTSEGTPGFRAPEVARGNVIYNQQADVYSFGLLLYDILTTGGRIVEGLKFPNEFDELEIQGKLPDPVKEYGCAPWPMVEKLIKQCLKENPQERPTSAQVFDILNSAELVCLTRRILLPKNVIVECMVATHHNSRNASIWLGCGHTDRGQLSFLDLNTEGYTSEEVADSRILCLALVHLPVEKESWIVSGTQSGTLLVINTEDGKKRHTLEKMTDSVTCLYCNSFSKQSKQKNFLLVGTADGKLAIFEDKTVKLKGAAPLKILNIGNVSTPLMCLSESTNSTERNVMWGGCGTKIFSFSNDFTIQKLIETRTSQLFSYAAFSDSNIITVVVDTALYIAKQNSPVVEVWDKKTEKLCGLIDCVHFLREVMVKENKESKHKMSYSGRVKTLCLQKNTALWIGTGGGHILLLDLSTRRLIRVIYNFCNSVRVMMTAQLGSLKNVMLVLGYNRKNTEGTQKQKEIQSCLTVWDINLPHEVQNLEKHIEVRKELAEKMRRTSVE
Outline: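 Human wild-type LRRK2 (3 nM) preincubated 15 min with compound (11-point, 3-fold, top 10 μM), then reacted 120 min at 23 °C with 400 nM LRRKtide and 25 μM ATP, pH 8.0. Stopped with EDTA; Tb-anti-pLRRKtide TR-FRET read after 30 min.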

T1 sequence (Q5S007 whole entry): as above

C[C@@H]1C[C@H](n2c(C3CC(=O)N([C@@H](C)C4CC4)C3)nc3cnc4ccc(C#N)cc4c32)CCO1 (stereo partly drawn) [Compound 35, 2-{1-[(1S)-1-cyclopropylethyl]-5-oxopyrrolidin-3-yl}-1-[(2R,4R)-2-methyloxan-4-yl]-1H-imidazo[4,5-c]quinoline-8-carbonitrile]
IC50 [1]: 179 nM | IC50 (LRRK2 wild type enzyme): 2.98 nM

C[C@@H]1C[C@H](n2c([C@H]3CN(CC4CC4)C(=O)O3)nc3cnc4ccc(C#N)cc4c32)CCO1 [Compound 36, 2-[(5R)-3-(cyclopropylmethyl)-2-oxo-1,3-oxazolidin-5-yl]-1-[(2R,4R)-2-methyloxan-4-yl]-1H-imidazo[4,5-c]quinoline-8-carbonitrile]
IC50 [1]: 63.8 nM | IC50 (LRRK2 wild type enzyme): 1.16 nM

C[C@@H]1C[C@H](n2c([C@@H]3CN(CC4CC4)C(=O)O3)nc3cnc4ccc(C#N)cc4c32)CCO1 [Compound 37, 2-[(5S)-3-(cyclopropylmethyl)-2-oxo-1,3-oxazolidin-5-yl]-1-[(2R,4R)-2-methyloxan-4-yl]-1H-imidazo[4,5-c]quinoline-8-carbonitrile]
IC50 [1]: 3700 nM | IC50 (LRRK2 wild type enzyme): 53.1 nM

C[C@@H]1C[C@H](n2c([C@@H]3CCN(S(C)(=O)=O)C3)nc3cnc4ccc(C#N)cc4c32)CCO1 [Compound 38, 2-[(3R)-1-methanesulfonylpyrrolidin-3-yl]-1-[(2R,4R)-2-methyloxan-4-yl]-1H-imidazo[4,5-c]quinoline-8-carbonitrile]
IC50 [1]: 772 nM | IC50 (LRRK2 wild type enzyme): 7.3 nM

C[C@@H]1C[C@H](n2c([C@H]3CCN(S(C)(=O)=O)C3)nc3cnc4ccc(C#N)cc4c32)CCO1 [Compound 39, 2-[(3S)-1-methanesulfonylpyrrolidin-3-yl]-1-[(2R,4R)-2-methyloxan-4-yl]-1H-imidazo[4,5-c]quinoline-8-carbonitrile]
IC50 [1]: 894 nM | IC50 (LRRK2 wild type enzyme): 5.27 nM

C[C@@H]1C[C@H](n2c([C@@H]3CCN(C(=O)C4CC4)C3)nc3cnc4ccc(C#N)cc4c32)CCO1 [Compound 40, 2-[(3R)-1-cyclopropanecarbonylpyrrolidin-3-yl]-1-[(2R,4R)-2-methyloxan-4-yl]-1H-imidazo[4,5-c]quinoline-8-carbonitrile]
IC50 [1]: 685 nM | IC50 (LRRK2 wild type enzyme): 9.19 nM

C[C@@H]1C[C@H](n2c([C@H]3CCN(C(=O)C4CC4)C3)nc3cnc4ccc(C#N)cc4c32)CCO1 [Compound 41, 2-[(3S)-1-cyclopropanecarbonylpyrrolidin-3-yl]-1-[(2R,4R)-2-methyloxan-4-yl]-1H-imidazo[4,5-c]quinoline-8-carbonitrile]
IC50 [1]: 639 nM | IC50 (LRRK2 wild type enzyme): 9.62 nM

CC(=O)N1CC[C@@H](c2nc3cnc4ccc(C#N)cc4c3n2[C@@H]2CCO[C@H](C)C2)C1 [Compound 42, 2-[(3R)-1-acetylpyrrolidin-3-yl]-1-[(2R,4R)-2-methyloxan-4-yl]-1H-imidazo[4,5-c]quinoline-8-carbonitrile]
IC50 [1]: 2070 nM | IC50 (LRRK2 wild type enzyme): 13 nM

CC(=O)N1CC[C@H](c2nc3cnc4ccc(C#N)cc4c3n2[C@@H]2CCO[C@H](C)C2)C1 [Compound 43, 2-[(3S)-1-acetylpyrrolidin-3-yl]-1-[(2R,4R)-2-methyloxan-4-yl]-1H-imidazo[4,5-c]quinoline-8-carbonitrile]
IC50 [1]: 1680 nM | IC50 (LRRK2 wild type enzyme): 12.4 nM

C[C@@H]1C[C@H](n2c(C3CC(=O)N([C@@H]4CCOC4)C3)nc3cnc4ccc(C#N)cc4c32)CCO1 (stereo partly drawn) [Compound 44, 1-[(2R,4R)-2-methyloxan-4-yl]-2-{5-oxo-1-[(3R)-oxolan-3-yl]pyrrolidin-3-yl}-1H-imidazo[4,5-c]quinoline-8-carbonitrile]
IC50 [1]: 555 nM | IC50 (LRRK2 wild type enzyme): 3.43 nM

C[C@@H]1C[C@H](n2c(C3CC(=O)N([C@H]4CCOC4)C3)nc3cnc4ccc(C#N)cc4c32)CCO1 (stereo partly drawn) [Compound 45, 1-[(2R,4R)-2-methyloxan-4-yl]-2-{5-oxo-1-[(3S)-oxolan-3-yl]pyrrolidin-3-yl}-1H-imidazo[4,5-c]quinoline-8-carbonitrile]
IC50 [1]: 550 nM | IC50 (LRRK2 wild type enzyme): 3.24 nM

C[C@@H]1C[C@H](n2c(C3CC(=O)N(C4COC4)C3)nc3cnc4ccc(C#N)cc4c32)CCO1 (stereo partly drawn) [Compound 46, 1-[(2R,4R)-2-methyloxan-4-yl]-2-[1-(oxetan-3-yl)-5-oxopyrrolidin-3-yl]-1H-imidazo[4,5-c]quinoline-8-carbonitrile]
IC50 [1]: 1330 nM | IC50 (LRRK2 wild type enzyme): 5.91 nM

C[C@@H]1C[C@H](n2c([C@H]3CC(=O)N(c4cnn(C)c4)C3)nc3cnc4ccc(C#N)cc4c32)CCO1 [Compound 47, 2-[(3S)-1-(1-methyl-1H-pyrazol-4-yl)-5-oxopyrrolidin-3-yl]-1-[(2R,4R)-2-methyloxan-4-yl]-1H-imidazo[4,5-c]quinoline-8-carbonitrile]
IC50 [1]: 9880 nM | IC50 (LRRK2 wild type enzyme): 141 nM

C[C@@H]1C[C@H](n2c([C@@H]3CC(=O)N(c4cnn(C)c4)C3)nc3cnc4ccc(C#N)cc4c32)CCO1 [Compound 48, 2-[(3R)-1-(1-methyl-1H-pyrazol-4-yl)-5-oxopyrrolidin-3-yl]-1-[(2R,4R)-2-methyloxan-4-yl]-1H-imidazo[4,5-c]quinoline-8-carbonitrile]
IC50 [1]: 110 nM | IC50 (LRRK2 wild type enzyme): 0.921 nM

C[C@@H]1C[C@H](n2c(C3CCN(CC4CC4)C(=O)C3)nc3cnc4ccc(C#N)cc4c32)CCO1 (stereo partly drawn) [Compound 49, 2-[1-(cyclopropylmethyl)-2-oxopiperidin-4-yl]-1-[(2R,4R)-2-methyloxan-4-yl]-1H-imidazo[4,5-c]quinoline-8-carbonitrile]
IC50 [1]: 871 nM | IC50 (LRRK2 wild type enzyme): 15.3 nM

C[C@@H]1C[C@H](n2c(C3CCC(=O)N(CC4CC4)C3)nc3cnc4ccc(C#N)cc4c32)CCO1 (stereo partly drawn) [Compound 50, 2-[1-(cyclopropylmethyl)-6-oxopiperidin-3-yl]-1-[(2R,4R)-2-methyloxan-4-yl]-1H-imidazo[4,5-c]quinoline-8-carbonitrile]
IC50 [1]: 875 nM | IC50 (LRRK2 wild type enzyme): 7.5 nM

C[C@@H]1C[C@H](n2c(C3CC(=O)N([C@@H]4CCCOC4)C3)nc3cnc4ccc(C#N)cc4c32)CCO1 (stereo partly drawn) [Compound 51, 1-[(2R,4R)-2-methyloxan-4-yl]-2-{1-[(3R)-oxan-3-yl]-5-oxopyrrolidin-3-yl}-1H-imidazo[4,5-c]quinoline-8-carbonitrile]
IC50 [1]: 312 nM | IC50 (LRRK2 wild type enzyme): 3.03 nM

C[C@@H]1C[C@H](n2c(C3CC(=O)N([C@H]4CCCOC4)C3)nc3cnc4ccc(C#N)cc4c32)CCO1 (stereo partly drawn) [Compound 52, 1-[(2R,4R)-2-methyloxan-4-yl]-2-{1-[(3S)-oxan-3-yl]-5-oxopyrrolidin-3-yl}-1H-imidazo[4,5-c]quinoline-8-carbonitrile]
IC50 [1]: 401 nM | IC50 (LRRK2 wild type enzyme): 2.91 nM

C[C@@H]1C[C@H](n2c(CC(=O)NCC3CC3)nc3cnc4ccc(C#N)cc4c32)CCO1 [Compound 54, 2-{8-cyano-1-[(2R,4R)-2-methyloxan-4-yl]-1H-imidazo[4,5-c]quinolin-2-yl}-N-(cyclopropylmethyl)acetamide]
IC50 [1]: 14.9 nM | IC50 (LRRK2 wild type enzyme): 0.336 nM

C[C@@H]1C[C@H](n2c(CS(=O)(=O)NCC3CC3)nc3cnc4ccc(C#N)cc4c32)CCO1 [Compound 55, 1-{8-cyano-1-[(2R,4R)-2-methyloxan-4-yl]-1H-imidazo[4,5-c]quinolin-2-yl}-N-(cyclopropylmethyl)methanesulfonamide]
IC50 [1]: 272 nM | IC50 (LRRK2 wild type enzyme): 2.3 nM

C[C@@H]1C[C@H](n2c(CC3CN(C(=O)c4ccccn4)C3)nc3cnc4ccc(C#N)cc4c32)CCO1 [Compound 56, 1-[(2R,4R)-2-methyloxan-4-yl]-2-{[1-(pyridine-2-carbonyl)azetidin-3-yl]methyl}-1H-imidazo[4,5-c]quinoline-8-carbonitrile]
IC50 [1]: 158 nM | IC50 (LRRK2 wild type enzyme): 2.39 nM

C[C@@H]1C[C@H](n2c(CC3CN(C(=O)c4cnn(C)c4)C3)nc3cnc4ccc(C#N)cc4c32)CCO1 [Compound 60, 2-{[1-(1-methyl-1H-pyrazole-4-carbonyl)azetidin-3-yl]methyl}-1-[(2R,4R)-2-methyloxan-4-yl]-1H-imidazo[4,5-c]quinoline-8-carbonitrile]
IC50 [1]: 1550 nM | IC50 (LRRK2 wild type enzyme): 4.29 nM

C[C@@H]1C[C@H](n2c(CS(=O)(=O)C3CC3)nc3cnc4ccc(C5CC5)cc4c32)CCO1 [Compound 62, 2-[(cyclopropanesulfonyl)methyl]-8-cyclopropyl-1-[(2R,4R)-2-methyloxan-4-yl]-1H-imidazo[4,5-c]quinoline]
IC50 [1]: 1250 nM | IC50 (LRRK2 wild type enzyme): 16.4 nM

CC(=O)N1CC(c2nc3cnc4ccc(C#N)cc4c3n2[C@@H]2CCO[C@H](C)C2)C1 [Compound 63, 2-(1-acetylazetidin-3-yl)-1-[(2R,4R)-2-methyloxan-4-yl]-1H-imidazo[4,5-c]quinoline-8-carbonitrile]
IC50 [1]: 1850 nM | IC50 (LRRK2 wild type enzyme): 12.4 nM

C[C@@H]1C[C@H](n2c(CC3CN(S(C)(=O)=O)C3)nc3cnc4ccc(C#N)cc4c32)CCO1 [Compound 65, 2-[(1-methanesulfonylazetidin-3-yl)methyl]-1-[(2R,4R)-2-methyloxan-4-yl]-1H-imidazo[4,5-c]quinoline-8-carbonitrile]
IC50 [1]: 525 nM | IC50 (LRRK2 wild type enzyme): 5.03 nM

C[C@@H]1C[C@H](n2c(C3CN(S(=O)(=O)C4CC4)C3)nc3cnc4ccc(C#N)cc4c32)CCO1 [Compound 66, 2-[1-(cyclopropanesulfonyl)azetidin-3-yl]-1-[(2R,4R)-2-methyloxan-4-yl]-1H-imidazo[4,5-c]quinoline-8-carbonitrile]
IC50 [1]: 525 nM | IC50 (LRRK2 wild type enzyme): 3.35 nM

C[C@@H]1C[C@H](n2c(C3CN(S(C)(=O)=O)C3)nc3cnc4ccc(C#N)cc4c32)CCO1 [Compound 67, 2-(1-methanesulfonylazetidin-3-yl)-1-[(2R,4R)-2-methyloxan-4-yl]-1H-imidazo[4,5-c]quinoline-8-carbonitrile]
IC50 [1]: 500 nM | IC50 (LRRK2 wild type enzyme): 3.03 nM
